Where two headings read alike, the source gives them in different places.
Test: Tissue distribution after i.g. or i.v. linezolid in control, CCl4-induced and 5/6 Nx rats
Assay type: in vivo, rat
Conditions: for Kp at 0.5 h / Kp at 1 h / Kp at 4 h: rat
Text: These two groups were further divided into the following three subgroups (n = 4): control rats, CCl4-induced rats, and 5/6 Nx rats. […] The rats were euthanized immediately after blood sampling. The brain, heart, lungs, liver, kidneys, and small intestine were collected. The collected tissues were washed and homogenized in normal saline (three-fold volume of each sample weight) using a multi-sample tissue grinder (Tissuelyser-48L; Shanghai Jingxin Industrial Development Co. Ltd., Shanghai, China). After centrifugation of the homogenate samples at 12,000 × g for 10 min at 4°C, the supernatants were stored at −80°C.
The flow rate was 1.0 mL/min.
Then, 5 µL of the supernatant was analyzed.

[1] = brain, iv, 25 mg/kg, i.v. 25 mg/kg linezolid, 5/6 Nx rats, read-out: Tissue/plasma concentration ratio, Brain
[2] = brain, iv, 25 mg/kg, i.v. 25 mg/kg linezolid, CCl4-induced rats, read-out: Tissue/plasma concentration ratio, Brain
[3] = brain, iv, 25 mg/kg, i.v. 25 mg/kg linezolid, control rats, read-out: Tissue/plasma concentration ratio, Brain
[4] = brain, oral, 63 mg/kg, i.g. 63 mg/kg linezolid, 5/6 Nx rats, read-out: Tissue/plasma concentration ratio, Brain
[5] = brain, oral, 63 mg/kg, i.g. 63 mg/kg linezolid, CCl4-induced rats, read-out: Tissue/plasma concentration ratio, Brain
[6] = brain, oral, 63 mg/kg, i.g. 63 mg/kg linezolid, control rats, read-out: Tissue/plasma concentration ratio, Brain
[7] = heart, iv, 25 mg/kg, i.v. 25 mg/kg linezolid, 5/6 Nx rats, read-out: Tissue/plasma concentration ratio, Heart
[8] = heart, iv, 25 mg/kg, i.v. 25 mg/kg linezolid, CCl4-induced rats, read-out: Tissue/plasma concentration ratio, Heart
[9] = heart, iv, 25 mg/kg, i.v. 25 mg/kg linezolid, control rats, read-out: Tissue/plasma concentration ratio, Heart
[10] = heart, oral, 63 mg/kg, i.g. 63 mg/kg linezolid, CCl4-induced rats, read-out: Tissue/plasma concentration ratio, Heart
[11] = heart, oral, 63 mg/kg, i.g. 63 mg/kg linezolid, control rats, read-out: Tissue/plasma concentration ratio, Heart
[12] = heart, oral, 63 mg/kg, i.g. 63 mg/kg linezolid, 5/6 Nx rats, read-out: Tissue/plasma concentration ratio, Heart
[13] = kidney, iv, 25 mg/kg, i.v. 25 mg/kg linezolid, 5/6 Nx rats, read-out: Tissue/plasma concentration ratio, Kidney
[14] = kidney, iv, 25 mg/kg, i.v. 25 mg/kg linezolid, control rats, read-out: Tissue/plasma concentration ratio, Kidney
[15] = kidney, oral, 63 mg/kg, i.g. 63 mg/kg linezolid, CCl4-induced rats, read-out: Tissue/plasma concentration ratio, Kidney
[16] = kidney, oral, 63 mg/kg, i.g. 63 mg/kg linezolid, 5/6 Nx rats, read-out: Tissue/plasma concentration ratio, Kidney
[17] = kidney, oral, 63 mg/kg, i.g. 63 mg/kg linezolid, control rats, read-out: Tissue/plasma concentration ratio, Kidney
[18] = liver (homogenate) relative to plasma, iv, 25 mg/kg, i.v. 25 mg/kg linezolid, 5/6 Nx rats, read-out: Tissue/plasma concentration ratio, Liver
[19] = liver (homogenate) relative to plasma, iv, 25 mg/kg, i.v. 25 mg/kg linezolid, control rats, read-out: Tissue/plasma concentration ratio, Liver
[20] = liver, oral, 63 mg/kg, i.g. 63 mg/kg linezolid, 5/6 Nx rats, read-out: Tissue/plasma concentration ratio, Liver
[21] = liver, oral, 63 mg/kg, i.g. 63 mg/kg linezolid, CCl4-induced rats, read-out: Tissue/plasma concentration ratio, Liver
[22] = liver, oral, 63 mg/kg, i.g. 63 mg/kg linezolid, control rats, read-out: Tissue/plasma concentration ratio, Liver
[23] = lung, iv, 25 mg/kg, i.v. 25 mg/kg linezolid, 5/6 Nx rats, read-out: Tissue/plasma concentration ratio, Lung
[24] = lung, iv, 25 mg/kg, i.v. 25 mg/kg linezolid, CCl4-induced rats, read-out: Tissue/plasma concentration ratio, Lung
[25] = lung, iv, 25 mg/kg, i.v. 25 mg/kg linezolid, control rats, read-out: Tissue/plasma concentration ratio, Lung
[26] = lung, oral, 63 mg/kg, i.g. 63 mg/kg linezolid, 5/6 Nx rats, read-out: Tissue/plasma concentration ratio, Lung
[27] = lung, oral, 63 mg/kg, i.g. 63 mg/kg linezolid, CCl4-induced rats, read-out: Tissue/plasma concentration ratio, Lung
[28] = lung, oral, 63 mg/kg, i.g. 63 mg/kg linezolid, control rats, read-out: Tissue/plasma concentration ratio, Lung
[29] = small intestine, iv, 25 mg/kg, i.v. 25 mg/kg linezolid, 5/6 Nx rats, read-out: Tissue/plasma concentration ratio, Small intestine
[30] = small intestine, iv, 25 mg/kg, i.v. 25 mg/kg linezolid, CCl4-induced rats, read-out: Tissue/plasma concentration ratio, Small intestine
[31] = small intestine, iv, 25 mg/kg, i.v. 25 mg/kg linezolid, control rats, read-out: Tissue/plasma concentration ratio, Small intestine
[32] = small intestine, oral, 63 mg/kg, i.g. 63 mg/kg linezolid, 5/6 Nx rats, read-out: Tissue/plasma concentration ratio, Small intestine
[33] = small intestine, oral, 63 mg/kg, i.g. 63 mg/kg linezolid, CCl4-induced rats, read-out: Tissue/plasma concentration ratio, Small intestine
[34] = small intestine, oral, 63 mg/kg, i.g. 63 mg/kg linezolid, control rats, read-out: Tissue/plasma concentration ratio, Small intestine

## CC(=O)NC[C@H]1CN(c2ccc(N3CCOCC3)c(F)c2)C(=O)O1 [Linezolid]
[1]
  Kp at 0.5 h: 0.12 ± 0.04
  Kp at 1 h: 0.15 ± 0.01
  Kp at 4 h: 0.13 ± 0.04
[2]
  Kp at 0.5 h: 0.16 ± 0.12
  Kp at 1 h: 0.12 ± 0.03
  Kp at 4 h: 0.08 ± 0.01
[3]
  Kp at 0.5 h: 0.11 ± 0.02
  Kp at 1 h: 0.12 ± 0.02
[4]
  Kp at 0.5 h: 0.17 ± 0.06
  Kp at 1 h: 0.16 ± 0.03
  Kp at 4 h: 0.18 ± 0.06
[5]
  Kp at 0.5 h: 0.1 ± 0.01
  Kp at 1 h: 0.09 ± 0.02
  Kp at 4 h: 0.07 ± 0.04
[6]
  Kp at 0.5 h: 0.15 ± 0.02
  Kp at 1 h: 0.03 ± 0.002
  Kp at 4 h: 0.06 ± 0.03
[7]
  Kp at 0.5 h: 0.85 ± 0.04
  Kp at 1 h: 0.91 ± 0.04
  Kp at 4 h: 0.75 ± 0.13
[8]
  Kp at 0.5 h: 0.63 ± 0.05
  Kp at 1 h: 0.67 ± 0.05
  Kp at 4 h: 0.67 ± 0.09
[9]
  Kp at 0.5 h: 0.5 ± 0.09
  Kp at 1 h: 0.4 ± 0.07
  Kp at 4 h: 0.13 ± 0.1
[10]
  Kp at 0.5 h: 0.64 ± 0.14
  Kp at 1 h: 0.54 ± 0.18
  Kp at 4 h: 0.61 ± 0.03
[11]
  Kp at 0.5 h: 0.68 ± 0.06
  Kp at 1 h: 0.24 ± 0.06
  Kp at 4 h: 0.47 ± 0.15
[12]
  Kp at 1 h: 0.88 ± 0.12
  Kp at 4 h: 0.96 ± 0.47
Kidney (homogenate) relative to plasma, iv, 25 mg/kg, i.v. 25 mg/kg linezolid, 5/6 Nx rats, read-out: Tissue/plasma concentration ratio, Kidney
  Kp at 4 h: 1 ± 0.23
[13]
  Kp at 0.5 h: 0.97 ± 0.12
  Kp at 1 h: 0.92 ± 0.18
kidney, iv, 25 mg/kg, i.v. 25 mg/kg linezolid, CCl4-induced rats, read-out: Tissue/plasma concentration ratio, Kidney
  Kp at 0.5 h: 1.28 ± 0.56
[14]
  Kp at 0.5 h: 0.64 ± 0.36
  Kp at 1 h: 0.62 ± 0.52
  Kp at 4 h: 0.84 ± 0.14
[15]
  Kp at 0.5 h: 0.85 ± 0.16
  Kp at 1 h: 1.18 ± 0.22
  Kp at 4 h: 1.11 ± 0.17
[16]
  Kp at 1 h: 0.94 ± 0.18
  Kp at 4 h: 0.97 ± 0.25
[17]
  Kp at 1 h: 0.42 ± 0.06
  Kp at 4 h: 0.75 ± 0.15
[18]
  Kp at 0.5 h: 1.24 ± 0.21
  Kp at 1 h: 1.11 ± 0.34
Liver (homogenate) relative to plasma, iv, 25 mg/kg, i.v. 25 mg/kg linezolid, CCl4-induced rats, read-out: Tissue/plasma concentration ratio, Liver
  Kp at 0.5 h: 1.32 ± 0.36
[19]
  Kp at 0.5 h: 1.22 ± 0.46
  Kp at 1 h: 0.6 ± 0.38
liver, iv, 25 mg/kg, i.v. 25 mg/kg linezolid, 5/6 Nx rats, read-out: Tissue/plasma concentration ratio, Liver
  Kp at 4 h: 1.39 ± 0.4
liver, iv, 25 mg/kg, i.v. 25 mg/kg linezolid, CCl4-induced rats, read-out: Tissue/plasma concentration ratio, Liver
  Kp at 4 h: 1.19 ± 0.85
liver, iv, 25 mg/kg, i.v. 25 mg/kg linezolid, control rats, read-out: Tissue/plasma concentration ratio, Liver
  Kp at 4 h: 1.3 ± 0.36
[20]
  Kp at 0.5 h: 1.25 ± 0.6
  Kp at 1 h: 1.37 ± 0.41
  Kp at 4 h: 1 ± 0.11
[21]
  Kp at 0.5 h: 1.06 ± 0.44
  Kp at 1 h: 1.19 ± 0.18
  Kp at 4 h: 0.93 ± 0.31
[22]
  Kp at 0.5 h: 1.64 ± 0.75
  Kp at 1 h: 0.78 ± 0.14
  Kp at 4 h: 1.06 ± 0.16
[23]
  Kp at 0.5 h: 0.87 ± 0.03
  Kp at 1 h: 0.91 ± 0.08
  Kp at 4 h: 0.74 ± 0.2
[24]
  Kp at 0.5 h: 0.55 ± 0.34
  Kp at 1 h: 0.66 ± 0.08
  Kp at 4 h: 0.85 ± 0.14
[25]
  Kp at 0.5 h: 0.42 ± 0.25
  Kp at 1 h: 0.25 ± 0.18
  Kp at 4 h: 0.45 ± 0.46
[26]
  Kp at 0.5 h: 0.86 ± 0.38
  Kp at 1 h: 0.94 ± 0.18
  Kp at 4 h: 0.82 ± 0.09
[27]
  Kp at 0.5 h: 0.68 ± 0.16
  Kp at 1 h: 0.66 ± 0.05
  Kp at 4 h: 0.6 ± 0.04
[28]
  Kp at 0.5 h: 0.67 ± 0.13
  Kp at 1 h: 0.07 ± 0.03
  Kp at 4 h: 0.46 ± 0.15
[29]
  Kp at 0.5 h: 1.19 ± 0.31
  Kp at 1 h: 0.77 ± 0.34
  Kp at 4 h: 0.73 ± 0.07
[30]
  Kp at 0.5 h: 0.66 ± 0.05
  Kp at 1 h: 0.69 ± 0.05
  Kp at 4 h: 0.71 ± 0.09
[31]
  Kp at 0.5 h: 0.42 ± 0.21
  Kp at 1 h: 0.21 ± 0.01
  Kp at 4 h: 0.47 ± 0.42
[32]
  Kp at 0.5 h: 2.48 ± 0.76
  Kp at 1 h: 1.28 ± 0.29
  Kp at 4 h: 0.9 ± 0.31
[33]
  Kp at 0.5 h: 0.93 ± 0.26
  Kp at 1 h: 0.9 ± 0.09
  Kp at 4 h: 1.11 ± 0.07
[34]
  Kp at 0.5 h: 0.35 ± 0.21
  Kp at 1 h: 0.33 ± 0.22
  Kp at 4 h: 0.6 ± 0.18
Within 4 hours after i.g. and i.v. administration, hepatic impairment or renal failure rats
  accumulation in brain, heart, lung, liver, kidney, or small intestinal tissues: did not accumulate

From publication PMC12057336 (Antimicrobial Agents and Chemotherapy, 2025)
